Laboratory results taken from patent US6492342B1, “Hygromycin A prodrugs” (Pfizer Inc., priority 1999, dated 2002).

System: panel of bacterial strains
Assay: Microtiter tray MIC assay against a panel of bacterial strains (NCCLS)
Type: cell-based
Settings: microtiter trays, compounds dissolved in DMSO
From the text: The assay, described below, employs conventional methodology and interpretation criteria and is designed to provide direction for chemical modifications that may lead to compounds with antibacterial activity against susceptible and drug-resistant organisms including, but not limited to, beta-lactam, macrolide and vancomycin resistance. In the assay, a panel of bacterial strains is assembled to include a variety of target pathogenic species, including representatives of antibiotic resistant bacteria. Use of this panel enables the chemical structure/activity relationship to be determined with respect to potency and spectrum of activity. The assay is performed in microtiter trays and interpreted according to Performance Standards for Antimicrobial Disk SusceDtibility Tests—Sixth Edition; Approved Standard, published by The National Committee for Clinical Laboratory Standards (NCCLS) guidelines; the minimum inhibitory concentration (MIC) is used to compare strains. Compounds are initially dissolved in dimethylsulfoxide (DMSO) as stock solutions.

Structure (SMILES): CC(=Cc1ccc(OC2OC(/C(C)=N/OCc3cccc(Cl)c3)C(O)C2O)c(OC(=O)C(C)(C)C)c1)C(=O)NC1C(O)C(O)C2OCOC2C1O (stereo not shown) [Example 1]
- antibacterial activity in the microtiter assay (MIC): exhibits antibacterial activity
